Reference: PubChem BioAssay AID330 (DTP/NCI, 2004)
Inconclusive results and toxic doses are left out. Rule for the calls: active = survival T/C of 150% or more; inactive = T/C below 125% in these data.

Test system: P388 leukemia ip, CD2F1 mice, survival T/C
Experiment: NCI In Vivo Anticancer Drug Screen. Data for tumor model P388 Leukemia (intraperitoneal) in CD2F1 (CDF1) mice
Conditions: endpoint: median survival time, higher = longer survival
Summary of the method: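 Mice carrying the transplanted tumor received test compound or vehicle. Survival was recorded in each group, and the value is the treated-group measurement divided by that of the vehicle-treated control group.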

[1] = dose: 50.0 mg/kg/injection, schedule: Q01DX005 (ip), vehicle: Klucel (hydroxypropylcellulose) (HPC)
[2] = dose: 100.0 mg/kg/injection, schedule: Q01DX005 (ip), vehicle: Klucel (hydroxypropylcellulose) (HPC)
[3] = dose: 12.5 mg/kg/injection, schedule: Q01DX009 (ip), vehicle: Klucel (hydroxypropylcellulose) (HPC)
[4] = dose: 50.0 mg/kg/injection, schedule: Q01DX009 (ip), vehicle: Klucel (hydroxypropylcellulose) (HPC)
[5] = dose: 100.0 mg/kg/injection, schedule: Q01DX009 (ip), vehicle: Klucel (hydroxypropylcellulose) (HPC)

Measured: T/C

CN1CCN(Cc2ccc(Nc3ccccc3)cc2)CC1
inactive: dose: 60.0 mg/kg/injection, schedule: Q01DX005 (ip), vehicle: Klucel (hydroxypropylcellulose) (HPC) 105 % of control | dose: 120.0 mg/kg/injection, schedule: Q01DX005 (ip), vehicle: Klucel (hydroxypropylcellulose) (HPC) 108 % of control | dose: 240.0 mg/kg/injection, schedule: Q01DX005 (ip), vehicle: Klucel (hydroxypropylcellulose) (HPC) 98 % of control

C/C=C/C=C/C1=C2C(=O)N(c3ccccc3)N=C2CC(C)O1 (configuration not stated)
inactive: [1] 100 % of control | [2] 104 % of control

CC(C)COP(=O)(OCC(C)C)OCC(C)C
inactive: dose: 25.0 mg/kg/injection, schedule: Q01DX009 (ip), vehicle: saline with Tween-80 100 % of control | dose: 50.0 mg/kg/injection, schedule: Q01DX009 (ip), vehicle: saline with Tween-80 109 % of control | dose: 50.0 mg/kg/injection, schedule: Q04DX003 (ip), vehicle: saline with Tween-80 100 % of control | dose: 100.0 mg/kg/injection, schedule: Q04DX003 (ip), vehicle: saline with Tween-80 90 % of control | dose: 200.0 mg/kg/injection, schedule: Q04DX003 (ip), vehicle: saline with Tween-80 95 % of control

CC1(C)OCC(C2OC(C)(C)OC2C2COC(C)(C)O2)O1 (configuration not stated)
inactive: [3] 105 % of control | dose: 25.0 mg/kg/injection, schedule: Q01DX009 (ip), vehicle: Klucel (hydroxypropylcellulose) (HPC) 106 % of control | [4] 108 % of control | [5] 100 % of control

C[C@@]1(O)CC[C@@]23OC(=O)CC2C[C@@H]1O3 (some centres not stated)
inactive: dose: 100.0 mg/kg/injection, schedule: Q01DX001 (ip), vehicle: saline 102 % of control | dose: 200.0 mg/kg/injection, schedule: Q01DX001 (ip), vehicle: saline 98 % of control | dose: 400.0 mg/kg/injection, schedule: Q01DX001 (ip), vehicle: saline 104 % of control

CCSCC1C(=O)C23CC1CCC2C12COC(O)C1C(C)(C)C(O)CC2OC3=O (configuration not stated)
inactive: dose: 3.12 mg/kg/injection, schedule: Q01DX009 (ip), vehicle: Klucel (hydroxypropylcellulose) (HPC) 103 % of control | dose: 6.25 mg/kg/injection, schedule: Q01DX009 (ip), vehicle: Klucel (hydroxypropylcellulose) (HPC) 107 % of control | [3] 103 % of control | [4] 109 % of control | [5] 107 % of control

c1ccc(C2=NN(c3ccccc3)C3C4CCC(C4)C23)cc1 (configuration not stated)
inactive: dose: 100.0 mg/kg/injection, schedule: Q04DX003 (ip), vehicle: Klucel (hydroxypropylcellulose) (HPC) 93 % of control | dose: 200.0 mg/kg/injection, schedule: Q04DX003 (ip), vehicle: Klucel (hydroxypropylcellulose) (HPC) 93 % of control | dose: 400.0 mg/kg/injection, schedule: Q04DX003 (ip), vehicle: Klucel (hydroxypropylcellulose) (HPC) 91 % of control

COc1ccc2c(c1O)Oc1c(O)ccc3c1C(C2)N(C)CC3 (configuration not stated)
inactive: dose: 2.5 mg/kg/injection, schedule: Q01DX005 (ip), vehicle: Klucel (hydroxypropylcellulose) (HPC) 107 % of control | dose: 5.0 mg/kg/injection, schedule: Q01DX005 (ip), vehicle: Klucel (hydroxypropylcellulose) (HPC) 100 % of control | dose: 10.0 mg/kg/injection, schedule: Q01DX005 (ip), vehicle: Klucel (hydroxypropylcellulose) (HPC) 102 % of control | dose: 20.0 mg/kg/injection, schedule: Q01DX005 (ip), vehicle: Klucel (hydroxypropylcellulose) (HPC) 100 % of control

O=[N+]([O-])c1cc2c(ccc3ccccc32)o1
inactive: [1] 102 % of control | [2] 103 % of control | dose: 200.0 mg/kg/injection, schedule: Q01DX005 (ip), vehicle: Klucel (hydroxypropylcellulose) (HPC) 117 % of control
